Measurements from article PMC12473123, “Structure–Function Insights into Quinuclidine-3-One BisQACs: Synthesis, Modulation of Bacterial Resistance, Structure–Activity Relationship, and Biological Profiling” (Pharmaceuticals, 2025).

Experiments:
Format in all cases: cell-based
[1] = tested on: panel of clinically relevant bacterial strains; experiment: Broth microdilution MIC, summary over the panel; settings: Staphylococcus aureus (including MRSA), Listeria monocytogenes, Escherichia coli
[2] = tested on: Listeria monocytogenes ATCC 7644; experiment: Biofilm inhibition assay (crystal violet); settings: Listeria monocytogenes, ATCC7644, read-out: biofilm inhibition
Protocol: The ability of the candidate compounds to inhibit biofilm formation was evaluated by determining the minimum biofilm inhibitory concentration (MBIC) against the biofilm-forming strains Staphylococcus aureus ATCC 25923 and Listeria monocytogenes ATCC 7644. Overnight bacterial cultures were diluted in fresh, pre-warmed Mueller–Hinton broth (MHB) and incubated at 37 °C with constant shaking at 220 rpm. Once the cultures reached the exponential growth phase (OD600 = 0.3–0.5), they were standardized to a final concentration of 4 × 10^6 CFU/mL.
Aliquots (50 µL) of the standardized bacterial suspension were inoculated into 96-well microtiter plates containing the test compounds at final concentrations of 100, 50, 25, and 12.5 µg/mL. Plates were incubated at 37 °C for 24 to 48 h, depending on the bacterial strain. After incubation, the planktonic cells were carefully aspirated to preserve the integrity of the biofilm layer. Wells were gently rinsed with sterile ultrapure Milli-Q water and air-dried at 60 °C for 1 h to fix the biofilms. Biofilm formation was quantified using a crystal violet (CV) staining method. Wells were stained with 100 µL of 0.1% CV solution and incubated at room temperature for 1 h. Excess dye was removed by rinsing with sterile ultrapure Milli-Q water, followed by air-drying. Bound CV was solubilized with 100 µL of 70% ethanol and incubated for 30 min. The solubilized dye was transferred to a fresh plate, and absorbance was measured at 595 nm using a microplate reader (Bio-Tek EL808, Winooski, VT, USA). Absorbance values were directly proportional to biofilm biomass. Untreated bacterial cultures served as positive controls for biofilm formation, while sterile MHB served as the negative control.

[3] = tested on: Staphylococcus aureus ATCC 25923; experiment: Broth microdilution MIC; settings: for MIC: Staphylococcus aureus, ATCC25923, read-out: Minimum Inhibitory Concentrations (MIC)
[4] = tested on: Staphylococcus aureus ATCC 25923; experiment: Flow cytometry cell viability (TO/PI staining); settings: at the onset of treatment, concentration not given
Protocol: To gain further insights into the effects of the test compounds on bacterial viability, Staphylococcus aureus ATCC 25923 was analyzed using flow cytometry (NovoCyte Advanteon, Agilent Technologies, Santa Clara, CA, USA). Two independent overnight cultures were diluted 1:10 in fresh Mueller–Hinton broth (MHB) and incubated at 37 °C with shaking at 220 rpm until reaching the early exponential growth phase. Cells were then harvested by centrifugation (4500× g, 10 min, room temperature). One cell pellet was resuspended in a staining buffer composed of phosphate buffer (pH 7.4) supplemented with 1 mM EDTA and 0.1% Tween 20. […] Both preparations were adjusted to a final density of 1 × 10^6 CFU/mL and served as controls for fluorescence compensation alongside an unstained bacterial population. Bacterial viability was assessed using the BD^TM Cell Viability Kit (BD Biosciences, San Jose, CA, USA), which employs thiazole orange (TO) and propidium iodide (PI) for dual fluorescence labeling. […] Flow cytometric analysis enabled the discrimination of live (TO+/PI−), damaged (TO+/PI+), and dead (TO−/PI+) bacterial populations based on their fluorescence profiles, allowing for a time-resolved evaluation of compound-induced cytotoxicity.

[5] = tested on: Bacillus cereus ATCC 14579; experiment: Broth microdilution MIC; settings: ATCC14579, read-out: Minimum Inhibitory Concentrations (MIC), Bacillus cereus ATCC 14579
[6] = tested on: Enterococcus faecalis ATCC 29212; experiment: Broth microdilution MIC; settings: Enterococcus faecalis, ATCC29212, read-out: Minimum Inhibitory Concentrations (MIC), Enterococcus faecalis ATCC 29212

Row | Compound | MIC [1] | inhibition at 6.25 µg/mL [2] | inhibition at 12.5 µg/mL [2] | inhibition at 25 µg/mL [2] | inhibition at 50 µg/mL [2] | inhibition at 100 µg/mL [2] | Minimum Inhibitory Concentrations (MIC) ([3]; Staphylococcus aureus ATCC 25923) | MIC [3] | cells with signs of membrane damage (TO+/PI+) [4] | fully viable cells (TO+/PI−) [4] | MIC [5] | MIC [6]
1 | CCCCCCCCCCCCCCCCNC1C[N+]2(CCCCCC[N+]34CCC(CC3)C(NCCCCCCCCCCCCCCCC)C4)CCC1CC2 (racemic) [2(QC16)6, (±)-1,1′-(Hexane-1,6-diyl) bis(3-(hexadecylamino)quinuclidinium) dibromide] | 5 to 38 µM | 40% | 69% | 81% | 88% | 89% | 9 µM | 9 µM | over 80% | < 5% | – | –
2 | CCCCCCCCCCCCCCCCNC1C[N+]2(CCC[N+]34CCC(CC3)C(NCCCCCCCCCCCCCCCC)C4)CCC1CC2 (racemic) [2(QC16)3, (±)-1,1′-(Propane-1,3-diyl) bis(3-(hexadecylamino)quinuclidinium) dibromide] | – | 91% | 93% | 94% | 94% | 97% | – | 38 µM | – | – | > 75 µM | > 75 µM
